Here are results for twelve compounds from patent EP0719251B1, “BICYCLO (2.2.2) OCTANE DERIVATIVES CHOLECYSTOKININ AND/OR GASTRIN ANTAGONISTS” (JAMES BLACK FOUNDATION LIMITED, priority 1993, dated 1995).

Experiment [1] has as its target T1, CCKA (Cavia porcellus, UniProt Q63931).
T1 construct: The pancreatata were removed from male guinea-pigs (200-300g; Dunkin Hartley); from tissue; host or cells: pancreas membranes of male Dunkin Hartley guinea-pigs
T1 sequence (Q63931 1-430): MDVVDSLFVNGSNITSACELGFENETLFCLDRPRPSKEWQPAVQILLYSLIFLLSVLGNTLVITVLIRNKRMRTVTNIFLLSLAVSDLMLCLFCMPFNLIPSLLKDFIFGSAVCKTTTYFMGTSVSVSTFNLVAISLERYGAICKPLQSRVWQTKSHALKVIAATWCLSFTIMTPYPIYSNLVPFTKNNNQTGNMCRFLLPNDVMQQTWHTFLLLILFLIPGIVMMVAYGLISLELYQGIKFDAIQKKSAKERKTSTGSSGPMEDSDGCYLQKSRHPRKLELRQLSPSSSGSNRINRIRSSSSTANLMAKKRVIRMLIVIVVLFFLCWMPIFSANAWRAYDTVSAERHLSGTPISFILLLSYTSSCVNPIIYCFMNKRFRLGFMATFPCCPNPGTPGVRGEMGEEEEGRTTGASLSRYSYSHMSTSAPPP
Description: CCKA binding assay in guinea-pig pancreas membranes. As to conditions: [125I]-CCK8(S) 200pM; for Ki: containing 0.375 µM PD134,308, read-out: CCKA pKi (converted); for CCKA pKi: containing 0.375 µM PD134,308. In outline:
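Competition binding of [125I]-CCK8(S) (200 pM in the added solution) to male guinea-pig pancreas membranes (1 mg/ml wet weight) containing 0.375 µM PD134,308, in HEPES buffer pH 7.2. Incubated 150 min at 21 ± 3°, then filtered. Bound radioactivity gamma-counted; non-specific binding defined with 100nM L-364,718.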

The target of experiment [2] is T2, gastrin (Rattus norvegicus, UniProt P30553).
T2 construct: The stomach was excised and flushed with ca. 1 ml of unbuffered physiological saline solution; from tissue; host or cells: isolated whole stomach of immature rats (33-50 g, ca. 21 days old)
T2 sequence (P30553 1-452): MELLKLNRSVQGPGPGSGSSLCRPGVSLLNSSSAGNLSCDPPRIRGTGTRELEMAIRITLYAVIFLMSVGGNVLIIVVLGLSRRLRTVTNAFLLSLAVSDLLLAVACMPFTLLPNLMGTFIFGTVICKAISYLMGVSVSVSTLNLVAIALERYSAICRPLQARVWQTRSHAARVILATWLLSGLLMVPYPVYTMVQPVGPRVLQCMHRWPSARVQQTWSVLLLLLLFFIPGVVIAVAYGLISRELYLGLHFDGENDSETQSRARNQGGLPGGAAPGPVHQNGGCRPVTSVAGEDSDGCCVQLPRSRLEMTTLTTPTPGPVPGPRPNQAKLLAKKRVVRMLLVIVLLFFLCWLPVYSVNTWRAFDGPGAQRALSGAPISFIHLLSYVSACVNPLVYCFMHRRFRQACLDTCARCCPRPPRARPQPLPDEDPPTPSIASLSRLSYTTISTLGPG
Put plainly: gastrin antagonist activity in an immature rat stomach assay. As to conditions: isolated immature rat stomach, cumulative pentagastrin dose-response curves, acid secretion; for Kb: read-out: Gastrin pKB (converted); for Gastrin pKB: 60 min. The method in brief:
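Isolated stomachs from immature rats (33-50 g, ca. 21 days) perfused at 1 ml min^-1 with O2-gassed unbuffered saline, perfusate pH monitored by electrode. After 120 min stabilisation, compounds added to serosal bath; cumulative pentagastrin dose-response curves begun 60 min later.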

Experiment [3] deals with T3, CCKB receptor (Mus musculus, UniProt P56481).
T3 construct: The whole brains from male mice (CD1 22-25g; Charles River) were removed; from tissue; host or cells: cerebral cortex membranes of male CD1 mice
T3 sequence (P56481 1-453): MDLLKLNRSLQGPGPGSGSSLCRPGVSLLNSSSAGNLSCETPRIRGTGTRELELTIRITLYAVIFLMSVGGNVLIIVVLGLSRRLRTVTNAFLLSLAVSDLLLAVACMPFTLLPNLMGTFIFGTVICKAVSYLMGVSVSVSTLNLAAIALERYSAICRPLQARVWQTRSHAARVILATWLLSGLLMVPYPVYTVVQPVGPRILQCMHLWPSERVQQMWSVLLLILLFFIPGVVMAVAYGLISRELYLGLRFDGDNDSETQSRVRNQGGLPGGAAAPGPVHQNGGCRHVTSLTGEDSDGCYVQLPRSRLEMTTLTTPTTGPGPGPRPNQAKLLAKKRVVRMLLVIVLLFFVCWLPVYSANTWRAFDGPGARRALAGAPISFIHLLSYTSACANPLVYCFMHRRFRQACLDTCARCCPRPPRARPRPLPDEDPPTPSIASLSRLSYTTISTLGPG
Put plainly: radioligand binding assay at the CCKB receptor in mouse cortical membranes. Particulars: [125I]-CCK8S 200pM, 150 min at 21 ± 3°C; for Ki: read-out: CCKB pKi (converted). The method in brief:
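Radioligand binding was quantified by gamma counting after filtration through GF/B filters and cold 50 mM Tris-HCl (pH 7.4) washes. Tissue source was male CD1 mouse cortex, homogenised and twice centrifuged, then resuspended at 2 mg.ml^-1 original wet weight in pH 7.2 HEPES buffer containing bacitracin.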

Regarding `O=C(O)c1cc(NC(=O)[C@@H](CCc2ccccc2)NC(=O)C2C3c4ccccc4C(c4ccccc43)C2C(=O)NCC23CC4CC(CC(C4)C2)C3)cc(C(=O)O)c1` (stereo partly drawn) [Example 37, cis-7-(1R-(3,5-dicarboxyphenylaminocarbonyl) -3-phenylpropylaminocarbonyl)-8-(1-adamintanemethylaminocarbonyl)-2,3,5,6-dibenzobicyclo[2.2.2] octane], the results for the Ki in experiment [1] and in experiment [3] were 2000 nM and 100 nM, respectively. In experiment [2], the Kb is 63.1 nM.
For the compound `COc1ccc(C[C@H](NC(=O)C2C3c4ccccc4C(c4ccccc43)C2C(=O)NCC23CC4CC(CC(C4)C2)C3)C(=O)Nc2cc(C(=O)O)cc(C(=O)O)c2)cc1` (single isomer, unassigned) [Example 13, cis-7-(1S-(3,5-dicarboxyphenylaminocarbonyl) -2-(4-methoxyphenyl)ethylaminocarbonyl)-8-(1-adamantanemethylaminocarbonyl) -2,3,5,6-dibenzobicyclo[2.2.2]octane], the Ki in experiment [1] is 2000 nM; in experiment [3], 501 nM. Besides, the Kb in experiment [2] was 316 nM.
In the case of `O=C(O)c1cc(NC(=O)[C@H](Cc2ccc3ccccc3c2)NC(=O)C2C3c4ccccc4C(c4ccccc43)C2C(=O)NCC23CC4CC(CC(C4)C2)C3)cc(C(=O)O)c1` (single isomer, unassigned) [Example 14, cis-7-(1S-(3,5-dicarboxyphenylaminocarbonyl)-2-(2-naphthyl) -ethylaminocarbonyl)-8-(1-adamantanemethylaminocarbonyl)-2,3,5,6-dibenzobicyclo[2.2.2]octane], in experiment [1], the “CCKA pKi” value stood at 6.1. Also, the “Gastrin pKB” value in experiment [2] came to 6.9. Further, the “CCKB pKi” value in experiment [3] is listed as 6.5.
The corresponding values for `O=C(O)c1cc(NC(=O)[C@H](Cc2ccc3ccccc3c2)NC(=O)C2C3c4ccccc4C(c4ccccc43)C2C(=O)NCC23CC4CC(CC(C4)C2)C3)cc(C(=O)O)c1` (single isomer, unassigned) [Example 15, cis-7-(1S-(3,5-dicarboxyphenylaminocarbonyl)-2-(2-naphthyl)ethylaminocarbonyl)-8-(1-adamantanemethylaminocarbonyl) -2,3,5,6-dibenzobicyclo[2.2.2]octane] are 7.0, 5.8 and 6.7.
`CC(C)(NC(=O)C1C2c3ccccc3C(c3ccccc32)C1C(=O)N[C@@H](Cc1ccccc1)C(=O)Nc1cc(C(=O)O)cc(C(=O)O)c1)C12CC3CC(CC(C3)C1)C2` (stereo partly drawn) [Example 49, cis-7-(1S-(3,5-dicarboxyphenylaminocarbonyl)-2-phenylethylaminocarbonyl)-8-(1-(1-adamantane)-1-methyl-ethylaminocarbonyl) -2,3,5,6-dibenzobicyclo[2.2.2]octane]: the results for the Ki in experiment [1] and in experiment [3] were 2510 nM and 63.1 nM, respectively. Further, the Kb in experiment [2] is 10 nM.
For `O=C(O)c1cc(NC(=O)[C@H](Cc2ccccc2F)NC(=O)C2C3c4ccccc4C(c4ccccc43)C2C(=O)NCC23CC4CC(CC(C4)C2)C3)cc(C(=O)O)c1` (single isomer, unassigned) [Example 17, cis-7-(1S-(3,5-dicarboxyphenylaminocarbonyl)-2-(2-fluorophenyl)ethylaminocarbonyl)-8-(1-adamantanemethylaminocarbonyl) -2,3,5,6-dibenzobicyclo[2.2.2]octane], in that order: 794 nM, 6.31 nM and 10 nM.
The corresponding values for `O=C(O)c1cc(NC(=O)[C@@H](Cc2ccccc2)NC(=O)C2C3c4ccccc4C(c4ccccc43)C2C(=O)NCC23CC4CC(CC(C4)C2)C3)cc(C(=O)O)c1` (single isomer, unassigned) [Example 4, cis-7-(1R-(3,5-dicarboxyphenylaminocarbonyl)-2-phenylethylaminocarbonyl)-8-(1-adamantananethylaminocarbonyl) -2,3,5,6-dibenzobicyclo[2.2.2]octane] are 1260 nM, 15.8 nM and 15.8 nM.
Regarding `O=C(O)c1cc(CNC(=O)[C@H](Cc2ccccc2)NC(=O)C2C3c4ccccc4C(c4ccccc43)C2C(=O)NCC23CC4CC(CC(C4)C2)C3)cc(C(=O)O)c1` (single isomer, unassigned) [Example 62, cis-7-(1S-(3,5-dicarboxyphenylmethylaminocarbonyl)-2-phenylethylaminocarbonyl)-8-(1-adamantanemethyl-aminocarbonyl)-2,3,5,6-dibenzobicyclo[2.2 .2]octane], in experiment [1], the “CCKA pKi” value is reported as 5.6. Besides, the Kb in experiment [2] was 63.1 nM. In addition, the Ki in experiment [3] is 39.8 nM.
With `O=C(O)c1cc(NC(=O)[C@H](Cc2ccccc2)NC(=O)C2C3c4ccccc4C(c4ccccc43)C2C(=O)NCc2cccc3ccccc23)cc(C(=O)O)c1` (single isomer, unassigned) [Example 32, cis-7-(1S-(3,5-dicarboxyphenylaminocarbonyl)-2-phenylethylaminocarbonyl)-8-(1-naphthalenemethylaminocarbonyl) -2,3,5,6-dibenzobicyclo [2.2.2]octane], the values for the Ki in experiment [1] and in experiment [3] were 501 nM and 10 nM, respectively. The Kb in experiment [2] was 25.1 nM.
The corresponding values for `O=C(O)c1cc(NC(=O)[C@H](CC2CCCCC2)NC(=O)C2C3c4ccccc4C(c4ccccc43)C2C(=O)NCC23CC4CC(CC(C4)C2)C3)cc(C(=O)O)c1` (stereo partly drawn) [Example 5, cis-7-(1S-(3,5-dicarboxyphenylaminocarbonyl) -2-cyclohexylethylaminocarbonyl)-8-(1-adamantanemethylaminocarbonyl) -2,3,5,6-dibenzobicyclo[2.2.2]octane] are 1000 nM, 25.1 nM and 316 nM.
For `O=C(O)c1cc(NC(=O)[C@H](Cc2cccs2)NC(=O)C2C3c4ccccc4C(c4ccccc43)C2C(=O)NCC23CC4CC(CC(C4)C2)C3)cc(C(=O)O)c1` (single isomer, unassigned) [Example 7, cis-7-(1S-(3,5-dicarboxyphenylaminocarbonyl) -2-(2-thiophenyl)ethylaminocarbonyl)-8-(1-adamantanemethylaminocarbonyl) -2,3,5,6-dibenzobicyclo[2.2.2]octane], in that order: 501 nM, 50.1 nM and 251 nM.
The corresponding values for `O=C(O)c1cc(CNC(=O)[C@H](Cc2ccccc2)NC(=O)C2C3c4ccccc4C(c4ccccc43)C2C(=O)NCC23CC4CC(CC(C4)C2)C3)cc(C(=O)O)c1` (single isomer, unassigned) [Example 61, cis-7-(1S-(3,5-dicarboxyphenylmethylaminocarbonyl) -2-phenylethylaminocarbonyl) -8-(1-adamantanemethylaminocarbonyl)-2,3,5,6-dibenzobicyclo [2.2.2] octane] are 2510 nM, 31.6 nM and 39.8 nM.
